Assay results reported in article PMC4517520 (Drug Design, Development and Therapy, 2015).
Where two headings read alike, the source gives them in different places. Blank lines part the entries; values can stand above or below the compound they belong to.

Tests used:
EGFR = conditions: read-out: Potency [IC50], cited from earlier work
HER2 = conditions: read-out: Potency [IC50]; PDB 3RCD; reference or ChEMBL geometric mean; cited from earlier work
A431 (wild-type) cells = assay: Cell proliferation assay; format: cell-based; conditions: Homo sapiens, A-431, 24 h, read-out: Cellular IC50 A431 (wild-type)
MCF-7 cells = assay: Cell proliferation assay; format: cell-based; conditions: Homo sapiens, MCF7, 24 h, read-out: Cellular IC50 MCF-7
[1] = test system: H1975 (T790M/L858R) cells; assay: Cell proliferation assay; format: cell-based; conditions: Homo sapiens, NCI-H1975, 24 h, read-out: Cellular IC50 H1975 (T790M/L858R)
[2] = molecular target: human EGFR cytoplasmic domain, dual T790M/L858R mutations (Homo sapiens, UniProt P00533, L858R/T790M); format: biochemical; conditions: in vitro
HER4 = conditions: read-out: Potency [IC50]; PDB 3BBT; reference or ChEMBL geometric mean; cited from earlier work

Chain of human EGFR cytoplasmic domain, dual T790M/L858R mutations (P00533 669-1210 T790M/L858R): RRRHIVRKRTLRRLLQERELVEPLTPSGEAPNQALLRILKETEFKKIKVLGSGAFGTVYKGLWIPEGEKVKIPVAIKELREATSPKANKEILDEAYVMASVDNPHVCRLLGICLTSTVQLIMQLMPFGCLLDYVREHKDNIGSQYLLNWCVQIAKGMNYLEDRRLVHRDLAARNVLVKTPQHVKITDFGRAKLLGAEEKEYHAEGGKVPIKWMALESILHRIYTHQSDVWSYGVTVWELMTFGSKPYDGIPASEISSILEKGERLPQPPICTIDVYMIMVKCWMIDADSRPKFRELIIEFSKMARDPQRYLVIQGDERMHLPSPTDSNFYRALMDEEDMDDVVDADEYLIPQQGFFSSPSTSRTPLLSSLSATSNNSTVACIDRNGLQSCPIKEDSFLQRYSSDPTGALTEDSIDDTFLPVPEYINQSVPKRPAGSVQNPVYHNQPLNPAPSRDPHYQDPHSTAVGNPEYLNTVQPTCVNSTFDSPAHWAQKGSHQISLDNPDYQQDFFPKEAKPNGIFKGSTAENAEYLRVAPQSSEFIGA

SMILES: CN(C)C/C=C/C(=O)Nc1cc2c(Nc3ccc(F)c(Cl)c3)ncnc2cc1O[C@H]1CCOC1 [0WM]
IC50 (EGFR; PDB 4G5J, reference or ChEMBL geometric mean): 0.5 nM

SMILES: COc1cc2ncnc(Nc3ccc(F)c(Cl)c3)c2cc1NC(=O)/C=C/CN1CCCCC1 [1C9]
IC50 (EGFR; PDB 4I23, reference or ChEMBL geometric mean): 8.12 nM

SMILES: CC(C)(O)CC(=O)NCCn1ccc2ncnc(Nc3ccc(Oc4cccc(C(F)(F)F)c4)c(Cl)c3)c21 [03P]
IC50 (HER2): 17 nM

IC50 (A431 (wild-type) cells): 41 nM
IC50 (MCF-7 cells): 94 nM
IC50 [1]: 127 nM
more potency against EGFR T790M than the two control molecules erlotinib and gefitinib [2]: at least 30 fold
SMILES: CC(C)(O)CC(=O)NCCc1ccc2ncnc(Nc3ccc(Oc4cccc(C(F)(F)F)c4)c(Cl)c3)c2c1 [A-10, N-(2-(4-((3-Chloro-4-(3-(trifluoromethyl)phenoxy)phenyl)amino)quinazolin-6-yl)ethyl)-3-hydroxy-3-methylbutanamide]

SMILES: CCN1CCN(Cc2ccc(-c3cc4c(N[C@H](C)c5ccccc5)ncnc4[nH]3)cc2)CC1 [AEE]
IC50 (EGFR; PDB 2J6M, reference or ChEMBL geometric mean): 10.9 nM

IC50 (A431 (wild-type) cells): 62 nM
IC50 (MCF-7 cells): > 1000 nM
SMILES: C#Cc1cccc(Nc2ncnc3cc(OCCOC)c(OCCOC)cc23)c1 [Erlotinib, erlotinib]

SMILES: COc1cc2ncnc(Nc3ccc(F)c(Cl)c3)c2cc1OCCCN1CCOCC1 [IRE]
IC50 (EGFR; PDB 2ITY, reference or ChEMBL geometric mean): 53.5 nM

SMILES: CN(C)CCC(=O)Nc1cccc(-c2c(-c3ccccc3)oc3ncnc(N[C@H](CO)c4ccccc4)c23)c1 [KJ8]
IC50 (EGFR; PDB 4JQ8, reference or ChEMBL geometric mean): 8 nM

SMILES: OC[C@@H](Nc1ncnc2oc(-c3ccccc3)c(-c3ccccc3)c12)c1ccccc1 [KJQ]
IC50 (EGFR; PDB 4JQ7, reference or ChEMBL geometric mean): 393 nM

SMILES: CN(C)CCCC(=O)Nc1cccc(-c2c(-c3ccccc3)oc3ncnc(N[C@H](CO)c4ccccc4)c23)c1 [KJV]
IC50 (EGFR; PDB 4JRV, reference or ChEMBL geometric mean): 29 nM
